Results reported in patent US20230295157A1, “3-(1H-IMIDAZOL-2-YL)-2,3,8,8A-TETRAHYDROINDOLIZIN-5(1H)-ONE DERIVATIVES USEFUL AS FACTOR XIA INHIBITORS” (JANSSEN PHARMACEUTICA NV, priority 2020, published 2023).
Like-named read-outs stand apart in the source and are kept apart here.

Experiments:
Factor XIa = Factor XIa (Homo sapiens (Human), UniProt P03951); test: Factor XIa inhibition assay (FLINT) utilizing a fluorophore-quencher pair peptide substrate; type: biochemical; conditions: 30 min preincubation, kinetic reads over 30 min, read-out: FXIa Kin Inh IC50
Chain of Factor XIa (P03951 388-625): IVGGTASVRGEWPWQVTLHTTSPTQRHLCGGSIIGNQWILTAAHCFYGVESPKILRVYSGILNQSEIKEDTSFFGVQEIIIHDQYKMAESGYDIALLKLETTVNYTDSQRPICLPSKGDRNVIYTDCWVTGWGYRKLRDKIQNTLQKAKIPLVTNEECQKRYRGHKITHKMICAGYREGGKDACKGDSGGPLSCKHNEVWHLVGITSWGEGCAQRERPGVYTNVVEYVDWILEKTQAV
Chain of Factor XIa (P03951 19-387 partner): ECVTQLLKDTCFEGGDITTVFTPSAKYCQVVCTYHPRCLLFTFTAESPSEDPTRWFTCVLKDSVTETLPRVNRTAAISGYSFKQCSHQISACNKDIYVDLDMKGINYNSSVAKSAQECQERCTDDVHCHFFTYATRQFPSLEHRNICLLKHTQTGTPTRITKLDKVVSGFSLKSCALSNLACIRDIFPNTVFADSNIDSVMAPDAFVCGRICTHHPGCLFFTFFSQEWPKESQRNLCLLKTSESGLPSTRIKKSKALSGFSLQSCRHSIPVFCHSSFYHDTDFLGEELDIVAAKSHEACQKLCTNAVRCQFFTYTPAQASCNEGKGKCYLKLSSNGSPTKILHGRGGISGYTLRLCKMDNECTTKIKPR
Procedure, shortened: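 FXIa ([…]) preincubated 30 min with compound (11-point 3-fold dilution, top 100 nM, 2% DMSO), then 15 μM quenched FXI Arg146-based peptide added; Tris pH 7.5, CaCl2, BSA, CHAPS. Fluorescence 485/520 nm read kinetically every 5 min over 30 min at RT; IC50 by 4-parameter fit.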

human plasma kallikrein = human plasma kallikrein (Homo sapiens (Human), UniProt P03952); test: Kallikrein inhibition assay (FLINT) utilizing a quenched AMC peptide substrate; type: biochemical; conditions: 30 min preincubation, read-out: Kallikrein Kin Inh IC50
Chain of human plasma kallikrein (P03952 391-638): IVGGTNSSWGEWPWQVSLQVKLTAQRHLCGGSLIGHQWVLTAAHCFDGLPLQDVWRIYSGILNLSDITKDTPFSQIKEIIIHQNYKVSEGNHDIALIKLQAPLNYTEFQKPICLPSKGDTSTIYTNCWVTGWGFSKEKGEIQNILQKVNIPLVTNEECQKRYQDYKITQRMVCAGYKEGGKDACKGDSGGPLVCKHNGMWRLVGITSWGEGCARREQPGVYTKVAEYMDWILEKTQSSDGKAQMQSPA
Chain of human plasma kallikrein (P03952 20-390 partner): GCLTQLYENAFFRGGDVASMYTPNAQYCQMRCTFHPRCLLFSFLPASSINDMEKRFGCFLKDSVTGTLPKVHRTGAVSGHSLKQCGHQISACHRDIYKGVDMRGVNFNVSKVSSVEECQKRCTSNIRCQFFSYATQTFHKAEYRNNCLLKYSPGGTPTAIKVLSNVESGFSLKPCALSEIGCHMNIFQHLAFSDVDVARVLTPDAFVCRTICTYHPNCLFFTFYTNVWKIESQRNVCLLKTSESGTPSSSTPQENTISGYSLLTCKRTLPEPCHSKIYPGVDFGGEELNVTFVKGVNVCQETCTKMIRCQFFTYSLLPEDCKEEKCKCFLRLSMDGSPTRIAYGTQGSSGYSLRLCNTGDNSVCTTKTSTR
Procedure, shortened: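 Enzyme (2 nM final) pre-incubated 30 min at room temperature with compound (11-point, 3-fold, top 1 μM, 2% DMSO), then 50 μM Z-Gly-Pro-Arg-AMC added in Tris pH 7.5 buffer. Kinetic fluorescence 340/440 nm every 5 min over 30 min; IC50 from 4-parameter logistic fit.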

[1] = 5Fam-KLTRAETV-K5Tamra substrate 15 μM
[2] = 5Fam-[…]-K5Tamra substrate 15 μM
[3] = kinetic reads over 30 min, Z-Gly-Pro-Arg-AMC substrate 50 μM

IC50 (Factor XIa; [1]) [nM] | IC50 (human plasma kallikrein; μM, kinetic reads) [µM] | IC50 (Factor XIa; [2]) [nM] | IC50 (human plasma kallikrein; [3]) [µM] | SMILES
> 100 | > 1 |  |  | Nc1ccncc1-c1c[nH]c([C@@H]2CC[C@H]3CC(c4c(-n5cnnn5)ccc(Cl)c4F)=CC(=O)N32)n1 [Example 272, (3S,8aS)-3-(4-(4-Aminopyridin-3-yl)-1H-imidazol-2-yl)-7-(3-chloro-2-fluoro-6-(1H-tetrazol-1-yl)phenyl)-2,3,8,8a-tetrahydroindolizin-5(1H)-one]
 |  | 18.1 | 0.0259 | O=C1C=C(c2c(-n3cnnn3)ccc(Cl)c2F)C[C@@H]2CC[C@@H](c3ncc(-c4ccnc([C@H](O)C(F)(F)F)c4)[nH]3)N12 (relative stereo) [Example 174, (3S*,8aS*)-7-(3-chloro-2-fluoro-6-(1H-tetrazol-1-yl)phenyl)-3-(5-(2-((S*)-2,2,2-trifluoro-1-hydroxyethyl)pyridin-4-yl)-1H-imidazol-2-yl)-2,3,8,8a-tetrahydroindolizin-5(1H)-one]
8 |  |  | 0.123 | NC(=O)Cc1nccc(-c2cnc([C@@H]3CC[C@@H]4CC(c5c(-n6cc(C(F)(F)F)nn6)ccc(Cl)c5F)=CC(=O)N43)[nH]2)c1F (single isomer, unassigned) [Example 165, 2-(4-(24(3*S,8a*R)-7-(3-chloro-2-fluoro-6-(4-(trifluoromethyl)-1H-1,2,3-triazol-1-yl)phenyl)-5-oxo-1,2,3,5,8,8a-hexahydroindolizin-3-yl)-1H-imidazol-5-yl)-3-fluoropyridin-2-yl)acetamide]
0.3 |  |  | 0.0008 | CNc1n[nH]c2cc(-c3cnc([C@@H]4CCC5CC(c6c(-n7cnnn7)ccc(Cl)c6F)=CC(=O)N54)[nH]3)ccc12 (stereo partly drawn) [Example 258, (3S)-7-[3-Chloro-2-fluoro-6-(tetrazol-1-yl)phenyl]-3-[5-[3-(methylamino)-1H-indazol-6-yl]-1H-imidazol-2-yl]-2,3,8,8a-tetrahydro-1H-indolizin-5-one]
0.6 |  |  | 0.0056 | CC1(C)C[C@@H](c2ncc(-c3ccc(N)nc3Cl)[nH]2)N2C(=O)C=C(c3c(-n4cnnn4)ccc(Cl)c3F)CC21 (stereo partly drawn) [Example 349, (3S)-3-(5-(6-Amino-2-chloropyridin-3-yl)-1H-imidazol-2-yl)-7-(3-chloro-2-fluoro-6-(1H-tetrazol-1-yl)phenyl)-1,1-dimethyl-2,3,8,8a-tetrahydroindolizin-5(1H)-one]
11 |  |  | 0.027 | O=C1CCCN1c1nccc(-c2cnc([C@@H]3CC[C@@H]4CC(c5c(-n6cnnn6)ccc(Cl)c5F)=CC(=O)N43)[nH]2)c1F [Example 106, (3S,8aR)-7-(3-chloro-2-fluoro-6-(1H-tetrazol-1-yl)phenyl)-3-(5-(3-fluoro-2-(2-oxopyrrolidin-1-yl)pyridin-4-yl)-1H-imidazol-2-yl)-2,3,8,8a-tetrahydroindolizin-5(1H)-one]
0.4 |  |  | 0.0011 | CNc1nccc(-c2cnc([C@@H]3CC[C@@H]4CC(c5c(-n6cnnn6)ccc(Cl)c5F)=CC(=O)N43)[nH]2)c1F [Example 134, (3S,8aR)-7-(3-chloro-2-fluoro-6-(1H-tetrazol-1-yl)phenyl)-3-(5-(3-fluoro-2-(methylamino)pyridin-4-yl)-1H-imidazol-2-yl)-2,3,8,8a-tetrahydroindolizin-5(1H)-one]
 |  | 33.6 | > 0.1 | Nc1ccccc1-c1cnc([C@@H]2CC[C@@H]3CC(c4c(-n5cnnn5)ccc(Cl)c4F)=CC(=O)N32)[nH]1 (relative stereo) [Example 310, (3S,8aR*)-3-(4-(2-Aminophenyl)-1H-imidazol-2-yl)-7-(3-chloro-2-fluoro-6-(1H-tetrazol-1-yl)phenyl)-2,3,8,8a-tetrahydroindolizin-5(1H)-one]
20.5 |  |  | 0.0909 | NC(=O)c1ccc(-c2cnc([C@@H]3CC[C@@H]4CC(c5c(-n6cc(C(F)(F)F)nn6)ccc(Cl)c5F)=CC(=O)N43)[nH]2)cn1 (single isomer, unassigned) [Example 212]
4.3 |  |  | 0.0383 | CC(C)[C@H](N)C(=O)OCc1nccc(-c2cnc([C@@H]3CC[C@@H]4CC(c5c(-n6cnnn6)ccc(Cl)c5F)=CC(=O)N43)[nH]2)c1F [Example 75, [4-[2-[(3S,8aR)-7-[3-chloro-2-fluoro-6-(tetrazol-1-yl)phenyl]-5-oxo-2,3,8,8a-tetrahydro-1H-indolizin-3-yl]-1H-imidazol-5-yl]-3-fluoro-2-pyridyl]methyl (2S)-2-amino-3-methyl-butanoate]
0.5 |  |  | 0.0046 | Nc1nccc(-c2cnc([C@@H]3CC[C@@H]4CC(c5c(-n6cnnn6)ccc(Cl)c5F)=CC(=O)N43)[nH]2)c1F [Example 126, (3S,8aR)-3-[5-(2-amino-3-fluoro-4-pyridyl)-1H-imidazol-2-yl]-7-[3-chloro-2-fluoro-6-(tetrazol-1-yl)phenyl]-2,3,8,8a-tetrahydro-1H-indolizin-5-one]
2.9 |  |  | 0.0038 | O=C1C=C(c2c(-n3cnnn3)ccc(Cl)c2F)C[C@H]2CC[C@@H](c3ncc(-c4ccnc(N5CCC5)c4F)[nH]3)N12 (single isomer, unassigned) [Example 111, (3*S,8aR)-3-(5-(2-(azetidin-1-yl)-3-fluoropyridin-4-yl)-1H-imidazol-2-yl)-7-(3-chloro-2-fluoro-6-(1H-tetrazol-1-yl)phenyl)-2,3,8,8a-tetrahydroindolizin-5(1H)-one]
 |  | 2.6 | 0.0049 | O=C1C=C(c2c(-n3cnnn3)ccc(Cl)c2F)C[C@@H]2CC[C@@H](c3ncc(-c4ccnc(N[C@H]5CCOC5)c4F)[nH]3)N12 (single isomer, unassigned) [Example 74, (3S,8aS*)-7-(3-chloro-2-fluoro-6-(1H-tetrazol-1-yl)phenyl)-3-(5-(3-fluoro-2-(((S)-tetrahydrofuran-3-yl)amino)pyridin-4-yl)-1H-imidazol-2-yl)-2,3,8,8a-tetrahydroindolizin-5(1H)-one]
54.9 |  |  | 0.342 | NC(=O)c1ccc(-c2cnc([C@@H]3CC[C@@H]4CC(c5c(-n6cnnn6)ccc(Cl)c5F)=CC(=O)N43)[nH]2)c(Cl)n1 [Example 229, 6-Chloro-5-(2-((3S,8aR)-7-(3-chloro-2-fluoro-6-(1H-tetrazol-1-yl)phenyl)-5-oxo-1,2,3,5,8,8a-hexahydroindolizin-3-yl)-1H-imidazol-5-yl)picolinamide]
0.5 |  |  | 0.011 | Nc1ccc(-c2cnc([C@@H]3CC[C@H]4CC(c5c(-n6cnnn6)ccc(Cl)c5F)=CC(=O)N43)[nH]2)c(F)n1 [Example 359, (3S,8aS)-3-(5-(6-Amino-2-fluoropyridin-3-yl)-1H-imidazol-2-yl)-7-(3-chloro-2-fluoro-6-(1H-tetrazol-1-yl)phenyl)-2,3,8,8a-tetrahydroindolizin-5(1H)-one]
> 100 |  |  | 0.0178 | NC(=O)c1cc(-c2cnc([C@@H]3CC[C@H]4CC(c5c(-n6cnnn6)ccc(Cl)c5F)=CC(=O)N43)[nH]2)ccc1F [Example 232, 5-(2-((3S,8aS)-7-(3-Chloro-2-fluoro-6-(1H-tetrazol-1-yl)phenyl)-5-oxo-1,2,3,5,8,8a-hexahydroindolizin-3-yl)-1H-imidazol-5-yl)-2-fluorobenzamide]
1.5 |  |  | 0.0011 | O=C1C=C(c2c(-n3cnnn3)ccc(Cl)c2F)C[C@H]2CC[C@@H](c3ncc(-c4ccc5[nH]c(=O)[nH]c5c4)[nH]3)N12 (single isomer, unassigned) [Example 286]
0.3 |  |  | 0.0012 | Nc1cc(-c2[nH]c([C@@H]3CC[C@@H]4CC(c5c(-n6cnnn6)ccc(Cl)c5F)=CC(=O)N43)nc2Cl)ccn1 [Example 372, (3S,8aR)-3-(5-(2-aminopyridin-4-yl)-4-chloro-1H-imidazol-2-yl)-7-(3-chloro-2-fluoro-6-(1H-tetrazol-1-yl)phenyl)-2,3,8,8a-tetrahydroindolizin-5(1H)-one]
0.5 |  |  | 0.008 | O=C1C=C(c2c(-n3cnnn3)ccc(Cl)c2F)C[C@H]2CC[C@@H](c3ncc(-c4c[nH]nc4Cl)[nH]3)N12 (single isomer, unassigned) [Example 224]
 |  | 6.5 | 0.0023 | Nc1ccn(-c2cc(-c3cnc([C@H]4CC[C@@H]5CC(c6c(-n7cnnn7)ccc(Cl)c6F)=CC(=O)N54)[nH]3)ccn2)n1 (single isomer, unassigned) [Example 72, (3R*,8aR)-3-(5-(2-(3-amino-1H-pyrazol-1-yl)pyridin-4-yl)-1H-imidazol-2-yl)-7-(3-chloro-2-fluoro-6-(1H-tetrazol-1-yl)phenyl)-2,3,8,8a-tetrahydroindolizin-5(1H)-one]
1.2 |  |  | 0.007 | COC(=O)Nc1ccc(-c2cnc([C@@H]3CCC4CC(c5c(-n6cnnn6)ccc(Cl)c5F)=CC(=O)N43)[nH]2)cn1 (stereo partly drawn) [Example 325, Methyl (5-(2-((3S)-7-(3-Chloro-2-fluoro-6-(1H-tetrazol-1-yl)phenyl)-5-oxo-1,2,3,5,8,8a-hexahydroindolizin-3-yl)-1H-imidazol-5-yl)pyridin-2-yl)carbamate]
0.5 |  |  | 0.002 | O=C1C=C(c2c(-n3cnnn3)ccc(Cl)c2F)CC2CC[C@@H](c3ncc(-c4ccc5[nH]c(=O)ncc5c4)[nH]3)N12 (stereo partly drawn) [Example 273, 6-(2-((3S)-7-(3-Chloro-2-fluoro-6-(1H-tetrazol-1-yl)phenyl)-5-oxo-1,2,3,5,8,8a-hexahydroindolizin-3-yl)-1H-imidazol-5-yl)quinazolin-2(1H)-one]
